Data set [1] can be described thus: Cytotoxicity determination by CCK-8 assay, HepG2.2.15 cells. Conditions: human, 6 days treatment. The format is cell-based. The protocol: (§1) HepG2.2.15 (the HepG2.2.15 cell line can be produced by transfection of the HepG2 cell line as described in Sells, Chen, and Acs 1987 (Proc. Natl. Acad. Sci. USA 84: 1005-1009), and the HepG2 cell line is available from ATCC® under number HB-8065™)
(§2) HepG2.2.15 cells were plated into 96-well plate in 2% FBS culture medium at the density of 40,000 cells/well and 5,000 cells/well for HBV inhibitory activity and cytotoxicity determination, respectively. After incubation at 37° C., 5% CO2 overnight, cells were treated with medium containing compounds for 6 days with medium and compounds refreshed after 3 days of treatment. Each compound was tested in a 1:3 serial dilutions at 8 different concentrations in triplicate. The highest concentration of the compounds was 10 uM or 1 uM for anti-HBV activity assay and 100 uM for cytotoxicity determination.
Cell viability was determined by CCK-8 assay. After 6 days of compounds treatment, 20 μl CCK-8 reagents were added to each well of cytotoxicity assay plates. Cell plates were incubated at 37° C., 5% CO2 for 2.5 h. The absorbance at 450 nm wavelength and the absorbance at 630 nm wavelength as reference was measured.
(§3) EC50 and CC50 values are calculated by the GRAPHPAD PRISM software.

Another data set relates to HBV. In words: Anti-HBV activity: HBV DNA in culture medium by qPCR, HepG2.2.15 cells. Type of data set: cell-based. Conditions: Hepatitis B virus, 144 h, 6 days treatment. The protocol: as §1, §2
The change of HBV DNA level induced by the compounds was assessed by quantitative real-time polymerase chain reaction (qPCR). Briefly, the HBV DNA in the culture medium was extracted using QIAamp 96 DNA Blood Kit according to the manual and then quantified by real-time PCR assay using the primers and probe in the table 1 below.
as §3
(Real-time PCR tracks product formation cycle by cycle.)

Among the data in patent US20220267313A1, “DIHYDROPYRIMIDINE DERIVATIVES AND USES THEREOF IN THE TREATMENT OF HBV INFECTION OR OF HBV-INDUCED DISEASES” (Janssen Sciences Ireland Unlimited Company, priority 2019, published 2022) are CC50 and EC50 values, retold here.

What is called CC50 is the concentration giving 50% cytotoxicity. Read a low CC50 as harm at low concentration. The term EC50 denotes the concentration at which the effect is half-maximal.

As for `COC(=O)C1=C(C23C4C5C2C2C3C4C52C(=O)O)NC(c2nccs2)=N[C@@H]1c1cccc(F)c1Cl` (single isomer, unassigned) [Ib-8, (1S,2R,3S,8S)-4-((S*)-6-(2-chloro-3-fluorophenyl)-5-(methoxycarbonyl)-2-(thiazol-2-yl)-3,6-dihydropyrimidin-4-yl)cubane-1-carboxylic Acid], the CC50 at 6 days in data set [1] turned out to be 132 nM. For the same compound, in the data set with HBV, the EC50 is above 50000 nM.

Consider `COC(=O)C1=C(C23C4C5C2C2C3C4C52C(=O)O)NC(c2nccs2)=N[C@@H]1c1ccc(F)c(F)c1Br` (stereo in doubt) [Ib-13, (2S,3S,5S,6S,7S,8S)-4-((S*)-6-(2-bromo-3,4-difluorophenyl)-5-(methoxycarbonyl)-2-(thiazol-2-yl)-3,6-dihydropyrimidin-4-yl)cubane-1-carboxylic Acid], for which, in data set [1], the cytotoxic concentration (CC50) at 6 days came out at 27 nM. This compound displayed an EC50 in the data set on HBV above 25000 nM.

In turn, `CCOC(=O)C1=C(C23C4C5C2C2C3C4C52C(=O)O)NC(c2nccs2)=N[C@@H]1c1ccc(F)c(F)c1Br` (stereo in doubt) [Ib-14, (2S,3S,5S,6S,7S,8S)-4-((S*)-6-(2-bromo-3,4-difluorophenyl)-5-(ethoxycarbonyl)-2-(thiazol-2-yl)-3,6-dihydropyrimidin-4-yl)cubane-1-carboxylic Acid] returned a 50% cytotoxic concentration (CC50) at 6 days in data set [1] of 7 nM. For the same compound, the half-maximal effective concentration (EC50) with HBV is 41000 nM.

The compound `COC(=O)C1=C(C23C4C5C2C2C3C4C52CC(=O)O)NC(c2nccs2)=N[C@@H]1c1ccc(F)cc1Cl` (single isomer, unassigned) [Ib-1, 2-((1S,2R,3R,8S)-4-((S*)-6-(2-chloro-4-fluorophenyl)-5-(methoxycarbonyl)-2-(thiazol-2-yl)-3,6-dihydropyrimidin-4-yl)cuban-1-yl)acetic Acid] came in with a CC50 at 6 days in data set [1] of 360 nM. In the data set on HBV, this compound displayed an EC50 of 42000 nM.

Turning to `CCOC(=O)C1=C(C23C4C5C2C2C3C4C52C(=O)O)NC(c2nccs2)=N[C@@H]1c1cccc(F)c1Br` (single isomer, unassigned) [Ib-19, (1S,2R,3S,8S)-4-((S*)-6-(2-bromo-3-fluorophenyl)-5-(ethoxycarbonyl)-2-(thiazol-2-yl)-3,6-dihydropyrimidin-4-yl)cubane-1-carboxylic Acid], in data set [1], the CC50 at 6 days came to 12.5 nM. In addition, the EC50 in the data set on HBV is above 25000 nM.

With `CCOC(=O)C1=C(C23C4C5C2C2C3C4C52C(=O)O)NC(c2nccs2)=N[C@H]1c1ccc(F)cc1Br` (single isomer, unassigned) [Ia-6, (R*)-4-(6-(2-bromo-4-fluorophenyl)-5-(ethoxycarbonyl)-2-(thiazol-2-yl)-3,6-dihydropyrimidin-4-yl)cubane-1-carboxylic Acid], the cytotoxic concentration (CC50) at 6 days in data set [1] was 11.5 nM. In the data set on HBV, the EC50 was above 12500 nM.

Consider `CC(C)OC(=O)C1=C(C23C4C5C2C2C3C4C52C(=O)O)NC(c2nccs2)=NC1c1ccc(F)c(F)c1Cl` (single isomer, unassigned) [Ib-12, (S*)-6-(6-Carboxy-cuban-3-yl)-4-(2-chloro-3,4-difluoro-phenyl)-2-thiazol-2-yl-1,4-dihydro-pyrimidine-5-carboxylic Acid Isopropyl Ester], for which half-maximal cytotoxicity in data set [1] (CC50 at 6 days) was put at 37 nM. In addition, the half-maximal effective concentration (EC50) in the data set with HBV was found to be 28000 nM.

With `COC(=O)C1=C(C23C4C5C2C2C3C4C52C(=O)O)NC(c2nccs2)=N[C@@H]1c1ccc(F)cc1Br` (stereo in doubt) [Ib-16, (2S,3S,5S,6S,7S,8S)-4-((S*)-6-(2-bromo-4-fluorophenyl)-5-(methoxycarbonyl)-2-(thiazol-2-yl)-3,6-dihydropyrimidin-4-yl)cubane-1-carboxylic Acid], the CC50 at 6 days in data set [1] is 71 nM. In the data set with HBV, the EC50 is above 50000 nM.

Take `CCOC(=O)C1=C(C23C4C5C2C2C3C4C52CC(C)(C)C(=O)O)NC(c2nccs2)=N[C@@H]1c1ccc(F)c(F)c1Cl` (single isomer, unassigned) [Ib-28, (S*)-3-(4-(6-(2-chloro-3,4-difluorophenyl)-5-(ethoxycarbonyl)-2-(thiazol-2-yl)-3,6-dihydropyrimidin-4-yl)cuban-1-yl)-2,2-dimethylpropanoic Acid]: it took 26.5 nM to reach half-maximal cytotoxicity in data set [1] (CC50 at 6 days). The response with HBV was half-maximal at 16000 nM (EC50).

On to `CCOC(=O)C1=C(C23C4C5C2C2C3C4C52C(=O)O)NC(c2nccs2)=N[C@@H]1c1ccc(F)cc1Cl` (stereo in doubt) [Ib-6, (2S,3S,5S,6S,7S,8S)-4-((S*)-6-(2-chloro-4-fluorophenyl)-5-(ethoxycarbonyl)-2-(thiazol-2-yl)-3,6-dihydropyrimidin-4-yl)cubane-1-carboxylic Acid], for which, in data set [1], the CC50 at 6 days worked out at 18 nM. Moreover, in the data set on HBV, the half-maximal effective concentration (EC50) is above 50000 nM.

The compound `COC(=O)C1=C(C23C4C5C2C2C3C4C52C(=O)O)NC(c2nccs2)=N[C@@H]1c1ccc(F)c(F)c1F` (stereo in doubt) [Ib-22, (S*)-4-((2,3,4-trifluorophenyl)-6-(methoxycarbonyl)-2-(thiazolel-4-yl))-1,4-dihydropyrimidin-4-yl)cubane-5-carboxylic Acid] had a CC50 at 6 days in data set [1] of 282 nM. In the data set on HBV, this compound came in with a concentration giving a half-maximal response (EC50) above 25000 nM.

For the compound `CCOC(=O)C1=C(C23C4C5C2C2C3C4C52C(=O)O)NC(c2nccs2)=NC1c1ccc(F)c(F)c1F` (single isomer, unassigned) [Ib-20, (S*)-4-(5-(ethoxycarbonyl)-2-(thiazol-2-yl)-6-(2,3,4-trifluorophenyl)-3,6-dihydropyrimidin-4-yl)cubane-1-carboxylic Acid], half-maximal cytotoxicity in data set [1] (CC50 at 6 days) was put at 28 nM. Further, the EC50 with HBV is 46000 nM.

For `CCOC(=O)C1=C(C23C4C5C2C2C3C4C52C(=O)O)NC(c2nccn2C)=NC1c1ccc(F)c(F)c1Cl` (single isomer, unassigned) [Ia-4, (R*)-4-(6-(2-chloro-3,4-difluorophenyl)-5-(ethoxycarbonyl)-2-(1-methyl-1H-imidazol-2-yl)-3,6-dihydropyrimidin-4-yl)cubane-1-carboxylic Acid], in data set [1], the CC50 at 6 days worked out at 55 nM. The concentration giving a half-maximal response (EC50) with HBV is above 50000 nM.

In the case of `COC(=O)C1=C(C23C4C5C2C2C3C4C52C(=O)O)NC(c2nccs2)=N[C@@H]1c1ccc(F)c(F)c1Cl` (single isomer, unassigned) [Ib-4, (1R,2R,3R,8S)-4-((S*)-6-(2-chloro-3,4-difluorophenyl)-5-(methoxycarbonyl)-2-(thiazol-2-yl)-3,6-dihydropyrimidin-4-yl)cubane-1-carboxylic Acid], in data set [1], the half-maximal cytotoxic concentration (CC50) at 6 days amounted to 22 nM. This compound also registered a concentration for a half-maximal effect (EC50) in the data set with HBV of 51000 nM.

In data set [1], `COC(=O)C1=C(C23C4C5C2C2C3C4C52C(=O)O)NC(c2nccs2)=N[C@@H]1c1cccc(F)c1C` (stereo in doubt) [Ia-1, (2R,3R,5R,6R,7R,8R)-4-((R*)-6-(3-fluoro-2-methylphenyl)-5-(methoxycarbonyl)-2-(thiazol-2-yl)-3,6-dihydropyrimidin-4-yl)cubane-1-carboxylic Acid] showed a half-maximal cytotoxic concentration (CC50) at 6 days of 204 nM. Also, in the data set on HBV, the EC50 was above 50000 nM.

For the compound `COC(=O)C1=C(C23C4C5C2C2C3C4C52C(=O)O)NC(c2nccs2)=N[C@@H]1c1ccc(F)cc1Cl` (single isomer, unassigned) [Ib-3, (1R,2R,3R,8S)-4-((S*)-6-(2-chloro-4-fluorophenyl)-5-(methoxycarbonyl)-2-(thiazol-2-yl)-3,6-dihydropyrimidin-4-yl)cubane-1-carboxylic Acid], the CC50 at 6 days in data set [1] was 84 nM. Besides, the midpoint of the response in the data set on HBV, the EC50, lay at 70000 nM.
